Assays:
[1] = test system: basal cells and pyramidal cells of the airway epithelium; test: miRNA expression in sorted basal cells versus pyramidal cells (ciliated + secretory), HTS and Agilent chips; parameters: species or system human; details: for Modulation of expression of the miRNAs in pyramidal cells (323(−)) relative to basal cells 323(+): HTS and Agilent chips; for Intensity of the level of expression in log2 in pyramidal cells (323(−)): pyramidal cells (ciliated + secretory)
How it was run: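 Sorted basal versus ciliated/mucus-secreting cells; markers CD151 and tissue factor; donors n=3; miRNA by Agilent chip or HTS.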

[2] = test system: human airway epithelial cells (HAECs); test: High-throughput sequencing (HTS) of miRNAs at four stages of differentiation of HAECs; details: for Modulation (ratio of the level of intensity of expression in log2 in two stages of differentiation) measured by high-throughput sequencing, D7 − D0 / Modulation (ratio of the level of intensity of expression in log2 in two stages of differentiation) measured by high-throughput sequencing, FC − D7 / Modulation (ratio of the level of intensity of expression in log2 in two stages of differentiation) measured by high-throughput sequencing, WD − D0 / Modulation (ratio of the level of intensity of expression in log2 in two stages of differentiation) measured by high-throughput sequencing, WD − FC / Level of intensity of expression in log2 measured by high-throughput sequencing, D0 / Level of intensity of expression in log2 measured by high-throughput sequencing, D7 / Level of intensity of expression in log2 measured by high-throughput sequencing, FC / Level of intensity of expression in log2 measured by high-throughput sequencing, WD: Table VI; for Level of intensity of expression in log2 At the differentiated stage (WD) measured in HTS: healthy human airway epithelial tissue; for Level of intensity of expression in log2 measured by high-throughput sequencing, D0: stage D0; for Level of intensity of expression in log2 measured by high-throughput sequencing, D7: stage D7; for Level of intensity of expression in log2 measured by high-throughput sequencing, FC: stage FC; for Level of intensity of expression in log2 At the differentiated stage (WD) measured in HTS / Level of intensity of expression in log2 measured by high-throughput sequencing, WD: stage WD
How it was run: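 Differentiation time course at air-liquid interface: 0, 7, ~14 (first cilia) and ~21 days (fully differentiated). Sequencing counts per strand were normalized to 10^6 sequences and analysed by linear model with empirical Bayesian moderation.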

[3] = test system: human airway epithelial cells (HAECs); test: Agilent miRNA chips, miRNA expression at four stages of differentiation of HAECs; details: for Modulation (ratio of the level of intensity of expression in log2 in two stages of differentiation) measured with the Agilent chips, D7 − D0 / Modulation (ratio of the level of intensity of expression in log2 in two stages of differentiation) measured with the Agilent chips, FC − D7 / Modulation (ratio of the level of intensity of expression in log2 in two stages of differentiation) measured with the Agilent chips, WD − D0 / Modulation (ratio of the level of intensity of expression in log2 in two stages of differentiation) measured with the Agilent chips, WD − FC / Level of intensity of expression in log2 measured with the Agilent chips, D0 / Level of intensity of expression in log2 measured with the Agilent chips, D7 / Level of intensity of expression in log2 measured with the Agilent chips, FC / Level of intensity of expression in log2 measured with the Agilent chips, WD: Table VI; for Modulation (ratio of the level of intensity of expression in log2 at two stages of differentiation), FC − D7 / Modulation (ratio of the level of intensity of expression in log2 at two stages of differentiation), WD − FC: Agilent miRNA chips, Table V; for Level of intensity of expression in log2 measured with the Agilent chips, D0: stage D0; for Level of intensity of expression in log2 measured with the Agilent chips, D7: stage D7; for Level of intensity of expression in log2 measured with the Agilent chips, FC: stage FC; for Level of intensity of expression in log2 measured with the Agilent chips, WD: stage WD
How it was run: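 Expression read from hybridization signals on Human miRNA Microarray v2 arrays spanning all miRBase v.12.0 human miRNAs plus 89 viral ones. Samples are RNA from the same patients profiled by sequencing, labelled with the standard kit.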

Substance: hsa-miR-30c: human miRNA, SEQ ID No. 34 (UGUAAACAUCCUACACUCUCAGC; expressed or natural sequence; listed as Homo sapiens)
- Modulation of expression of the miRNAs in pyramidal cells (323(−)) relative to basal cells 323(+) [1]: −1.01
- Intensity of the level of expression in log2 in basal cells (323(+)) [1]: 6.92 log2
- Intensity of the level of expression in log2 in pyramidal cells (323(−)) [1]: 5.91 log2
- Modulation (ratio of the level of intensity of expression in log2 in two stages of differentiation) measured by high-throughput sequencing, D7 − D0 [2]: 0.32 log2
- Modulation (ratio of the level of intensity of expression in log2 in two stages of differentiation) measured by high-throughput sequencing, FC − D7 [2]: −0.33 log2
- Modulation (ratio of the level of intensity of expression in log2 in two stages of differentiation) measured by high-throughput sequencing, WD − D0 [2]: −0.40 log2
- Modulation (ratio of the level of intensity of expression in log2 in two stages of differentiation) measured by high-throughput sequencing, WD − FC [2]: −0.39 log2
- Level of intensity of expression in log2 At the differentiated stage (WD) measured in HTS [2]: 10.87 log2
- Level of intensity of expression in log2 measured by high-throughput sequencing, D0 [2]: 0.42 log2
- Level of intensity of expression in log2 measured by high-throughput sequencing, D7 [2]: 0.73 log2
- Level of intensity of expression in log2 measured by high-throughput sequencing, FC [2]: 0.41 log2
- Level of intensity of expression in log2 measured by high-throughput sequencing, WD [2]: 0.01 log2
- Modulation (ratio of the level of intensity of expression in log2 in two stages of differentiation) measured with the Agilent chips, D7 − D0 [3]: 1.97 log2
- Modulation (ratio of the level of intensity of expression in log2 at two stages of differentiation), FC − D7 [3]: −0.34 log2
- Modulation (ratio of the level of intensity of expression in log2 in two stages of differentiation) measured with the Agilent chips, FC − D7 [3]: −0.34 log2
- Modulation (ratio of the level of intensity of expression in log2 in two stages of differentiation) measured with the Agilent chips, WD − D0 [3]: 1.51 log2
- Modulation (ratio of the level of intensity of expression in log2 at two stages of differentiation), WD − FC [3]: −0.12 log2
- Modulation (ratio of the level of intensity of expression in log2 in two stages of differentiation) measured with the Agilent chips, WD − FC [3]: −0.12 log2
- Level of intensity of expression in log2 measured with the Agilent chips, D0 [3]: 7.80 log2
- Level of intensity of expression in log2 measured with the Agilent chips, D7 [3]: 9.77 log2
- Level of intensity of expression in log2 measured with the Agilent chips, FC [3]: 9.43 log2
- Level of intensity of expression in log2 measured with the Agilent chips, WD [3]: 9.31 log2

Substance: hsa-miR-30d: human miRNA, SEQ ID No. 35 (UGUAAACAUCCCCGACUGGAAG; expressed or natural sequence; listed as Homo sapiens)
- Modulation of expression of the miRNAs in pyramidal cells (323(−)) relative to basal cells 323(+) [1]: −1.11
- Intensity of the level of expression in log2 in basal cells (323(+)) [1]: 8.16 log2
- Intensity of the level of expression in log2 in pyramidal cells (323(−)) [1]: 7.05 log2
- Modulation (ratio of the level of intensity of expression in log2 in two stages of differentiation) measured by high-throughput sequencing, D7 − D0 [2]: 0.64 log2
- Modulation (ratio of the level of intensity of expression in log2 in two stages of differentiation) measured by high-throughput sequencing, FC − D7 [2]: −0.09 log2
- Modulation (ratio of the level of intensity of expression in log2 in two stages of differentiation) measured by high-throughput sequencing, WD − D0 [2]: 1.75 log2
- Modulation (ratio of the level of intensity of expression in log2 in two stages of differentiation) measured by high-throughput sequencing, WD − FC [2]: 1.20 log2
- Level of intensity of expression in log2 At the differentiated stage (WD) measured in HTS [2]: 8.76 log2
- Level of intensity of expression in log2 measured by high-throughput sequencing, D0 [2]: 9.12 log2
- Level of intensity of expression in log2 measured by high-throughput sequencing, D7 [2]: 9.76 log2
- Level of intensity of expression in log2 measured by high-throughput sequencing, FC [2]: 9.67 log2
- Level of intensity of expression in log2 measured by high-throughput sequencing, WD [2]: 10.87 log2
- Modulation (ratio of the level of intensity of expression in log2 in two stages of differentiation) measured with the Agilent chips, D7 − D0 [3]: 1.88 log2
- Modulation (ratio of the level of intensity of expression in log2 at two stages of differentiation), FC − D7 [3]: −0.06 log2
- Modulation (ratio of the level of intensity of expression in log2 in two stages of differentiation) measured with the Agilent chips, FC − D7 [3]: −0.06 log2
- Modulation (ratio of the level of intensity of expression in log2 in two stages of differentiation) measured with the Agilent chips, WD − D0 [3]: 1.86 log2
- Modulation (ratio of the level of intensity of expression in log2 at two stages of differentiation), WD − FC [3]: 0.05 log2
- Modulation (ratio of the level of intensity of expression in log2 in two stages of differentiation) measured with the Agilent chips, WD − FC [3]: 0.05 log2
- Level of intensity of expression in log2 measured with the Agilent chips, D0 [3]: 7.06 log2
- Level of intensity of expression in log2 measured with the Agilent chips, D7 [3]: 8.94 log2
- Level of intensity of expression in log2 measured with the Agilent chips, FC [3]: 8.88 log2
- Level of intensity of expression in log2 measured with the Agilent chips, WD [3]: 8.92 log2

From patent US9023821B2, “Use of MicroRNA for treating diseases associated with a dysfunction of the cilia in multiciliated epithelial cells” (Centre National de la Recherche Scientifique, priority 2009, dated 2015)
